We go through seven compounds from patent publication US11077123B2 (priority 2016, dated 2021).

The structures appear in SMILES notation.

The test system of one assay is Clostridium perfringens. Particulars: varying concentrations; cited from earlier work.
Assay [1] relates to pESI conjugation between S. Infantis 119944 (donor) and E. coli ORN172 (recipient). Description: pESI conjugation (mating) experiments on LB agar plates. The assay is classed as cell-based, Salmonella enterica serovar Infantis; E. coli. The following applies: pESI transfer, LB agar plates supplemented with 2% (w/v) of the substance.
The subject of assay [2] is S. Infantis and the E. coli strains. The assay is described as follows: Bacterial viability / growth in the conjugation experiments. The assay is classed as cell-based, Salmonella enterica serovar Infantis; E. coli. The following applies: 2% of the substance.

Consider `C[C@H](CCC(=O)NCC(=O)O)[C@H]1CC[C@H]2[C@@H]3[C@H](O)C[C@@H]4C[C@H](O)CC[C@]4(C)[C@H]3CC[C@]12C` [glycine-conjugated chenodeoxycholic acid], for which the bacterial viability result with Clostridium perfringens is listed as “significantly reduced bacterial viability”.
With `C[C@H](CCC(=O)O)[C@H]1CC[C@H]2[C@@H]3CC[C@@H]4C[C@H](O)CC[C@]4(C)[C@H]3CC[C@]12C` [lithocholic acid, 3α-hydroxy-5β-cholan-24-oic acid], the conjugation frequency entry in assay [1] is “significant decrease”. Also, in assay [2], the “growth (rate) of S. Infantis and the E. coli strains” value (“growth (rate)” for short) is “no effect on the growth rate”.
The matching figures for `NCC(=O)O` [glycine]: “transconjugants in the presence of these regents were not produced” and “inhibited the growth”.
With `C[C@H](CCC(=O)NCCS(=O)(=O)O)[C@H]1CC[C@H]2[C@@H]3[C@H](O)C[C@@H]4C[C@H](O)CC[C@]4(C)[C@H]3CC[C@]12C` [taurine-conjugated chenodeoxycholic acid], in the assay on Clostridium perfringens, the bacterial viability result is “significantly reduced bacterial viability”.
On to `NCCS(=O)(=O)O` [taurine, 2-aminoethanesulfonic acid], for which the conjugation frequency result in assay [1] is reported as “inhibit conjugation to a lower degree”. In addition, the “growth (rate)” value in assay [2] is on record as “no effect on the growth rate”.
Turning to `C[C@H](CCC(=O)O)[C@H]1CC[C@H]2[C@@H]3[C@H](O)C[C@@H]4C[C@H](O)CC[C@]4(C)[C@H]3CC[C@]12C` [chenodeoxycholic acid], the conjugation frequency result in assay [1] was “transconjugants in the presence of these regents were not produced”. Also, in assay [2], the “growth (rate)” value is recorded as “inhibited the growth”.
For the compound `C[C@H](CCC(=O)O)[C@H]1CC[C@H]2[C@@H]3[C@H](O)C[C@@H]4C[C@H](O)CC[C@]4(C)[C@H]3C[C@H](O)[C@]12C` [cholic acid], in assay [1], the conjugation frequency result is recorded as “significant decrease”.
